Measurements reported in patent publication US20080207705A1, “Heteroaryl-Imidazole Derivatives as Cannabinoid CB1 Receptor Antagonists” (Green Cross Corporation, priority 2007, published 2008).
Where two headings read alike, the source gives them in different places.

Biological target: T1, rat CB-1 receptor (Rattus norvegicus, UniProt P20272)
T1 construct: The tissue obtained from the brain of SD rats was homogenized; from tissue; host or cells: brain of SD rats (membrane pellet of homogenate)
Test: rat CB-1 receptor binding protocol with [3H]CP-55940

[1] = [3H]CP-55940, brain tissue of SD rats, 30 °C for 60 min, read-out: IC50

T1 sequence (P20272 whole entry): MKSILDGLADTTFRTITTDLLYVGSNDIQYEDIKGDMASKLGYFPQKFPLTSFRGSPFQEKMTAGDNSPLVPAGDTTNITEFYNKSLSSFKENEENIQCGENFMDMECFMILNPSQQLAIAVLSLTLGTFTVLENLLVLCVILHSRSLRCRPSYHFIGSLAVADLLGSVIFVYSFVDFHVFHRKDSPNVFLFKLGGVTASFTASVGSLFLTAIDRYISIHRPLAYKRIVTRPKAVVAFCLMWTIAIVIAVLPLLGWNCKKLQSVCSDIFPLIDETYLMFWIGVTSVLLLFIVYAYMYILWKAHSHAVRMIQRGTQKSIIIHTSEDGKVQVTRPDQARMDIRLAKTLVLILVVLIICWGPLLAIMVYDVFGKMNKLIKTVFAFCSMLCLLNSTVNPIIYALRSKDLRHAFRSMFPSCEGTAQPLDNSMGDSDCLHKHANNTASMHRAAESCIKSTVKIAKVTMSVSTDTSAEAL

Compound | IC50 [1] [nM] | IC50 [nM]
Cc1c(-c2nnc(C3CCCCC3)o2)nc(-c2ccc(Cl)cc2Cl)n1-c1ccc(Cl)cc1 [Example 2, 2-(1-(4-Chlorophenyl)-2-(2,4-dichlorophenyl)-5-methyl-1H-imidazol-4-yl)-5-cyclohexyl-1,3,4-oxadiazole] | 115 | –
Cc1c(-c2nnc(C(C)(C)C)o2)nc(-c2ccccc2Cl)n1-c1ccc(Br)cc1 [Example 51, 2-(1-(4-Bromophenyl)-2-(2-chlorophenyl)-5-methyl-1H-imidazol-4-yl)-5-tert-butyl-1,3,4-oxadiazole] | – | 31.7
CC(C)(C)c1nnc(-c2nc(-c3ccccc3Cl)n(-c3ccc(Br)cc3)c2Cn2cncn2)o1 [Example 78, 2-(5-((1H-1,2,4-Triazol-1-yl)methyl)-1-(4-bromophenyl)-2-(2-chlorophenyl)-1H-imidazol-4-yl)-5-tert-butyl-1,3,4-oxadiazole] | 10.3 | –
CCc1c(-c2nnc(C3(c4ccc(C)cc4)CC3)o2)nc(-c2ccc(Cl)cc2Cl)n1-c1ccc(Br)cc1 [Example 43, 2-(1-(4-Bromophenyl)-2-(2,4-dichlorophenyl)-5-ethyl-1H-imidazol-4-yl)-5-(1-p-tolylcyclopropyl)-1,3,4-oxadiazole] | – | 8.38
FC(F)(F)C1(c2nnc(-c3nc(-c4ccc(Cl)cc4Cl)n(-c4ccc(Cl)cc4)c3Cn3cncn3)o2)CC1 [Example 89, 2-(5-((1H-1,2,4-Triazol-1-yl)methyl)-1-(4-chlorophenyl)-2-(2,4-dichlorophenyl)-1H-imidazol-4-yl)-5-(1-(trifluoromethyl)cyclopropyl)-1,3,4-oxadiazole] | 1.14 | –
Cc1c(-c2nnc(C3CCC3)o2)nc(-c2ccc(Cl)cc2Cl)n1-c1ccc(Cl)cc1 [Example 4, 2-(1-(4-Chlorophenyl)-2-(2,4-dichlorophenyl)-5-methyl-1H-imidazol-4-yl)-5-cyclobutyl-1,3,4-oxadiazole] | 38.7 | –
CC(C)c1c(-c2nnc(C3(c4ccccc4)CC3)s2)nc(-c2ccc(Cl)cc2Cl)n1-c1ccc(Br)cc1 [Example 116, 2-(1-(4-Bromophenyl)-2-(2,4-dichlorophenyl)-5-isopropyl-1H-imidazol-4-yl)-5-(1-phenylcyclopropyl)-1,3,4-thiadiazole] | 5.66 | –
Cc1c(-c2nnc(C3(C(F)(F)F)CC3)o2)nc(-c2ccccc2Cl)n1-c1ccc(Br)cc1 [Example 52, 2-(1-(4-Bromophenyl)-2-(2-chlorophenyl)-5-methyl-1H-imidazol-4-yl)-5-(1-(trifluoromethyl)cyclopropyl)-1,3,4-oxadiazole] | 18.6 | –
CCCC(C)c1nnc(-c2nc(-c3ccc(Cl)cc3Cl)n(-c3ccc(Cl)cc3)c2CC)s1 (centres unmarked) [Example 106, 2-(1-(4-Chlorophenyl)-2-(2,4-dichlorophenyl)-5-ethyl-1H-imidazol-4-yl)-5-(pentan-2-yl)-1,3,4-thiadiazole] | 12.9 | –
CCc1c(-c2nnc(C3(c4ccc(Cl)cc4)CC3)o2)nc(-c2ccc(Cl)cc2Cl)n1-c1ccc(Br)cc1 [Example 40, 2-(1-(4-Bromophenyl)-2-(2,4-dichlorophenyl)-5-ethyl-1H-imidazol-4-yl)-5-(1-(4-chlorophenyl)cyclopropyl)-1,3,4-oxadiazole] | – | 9.05
CCCc1c(-c2nnc(C3(c4ccc(Cl)cc4)CC3)o2)nc(-c2ccc(Cl)cc2Cl)n1-c1ccc(Cl)cc1 [Example 37, 2-(1-(4-Chlorophenyl)-2-(2,4-dichlorophenyl)-5-propyl-1H-imidazol-4-yl)-5-(1-(4-chlorophenyl)cyclopropyl)-1,3,4-oxadiazole] | 15.1 | –
CCc1c(-c2nnc(C3(c4ccccc4)CC3)o2)nc(-c2ccc(Cl)cc2Cl)n1-c1ccc(Br)cc1 [Example 27, 2-(1-(4-Bromophenyl)-2-(2,4-dichlorophenyl)-5-ethyl-1H-imidazol-4-yl)-5-(1-phenylcyclopropyl)-1,3,4-oxadiazole] | – | 9.14
CC(C)c1c(-c2nnc(C(C)(C)C)o2)nc(-c2ccc(Cl)cc2Cl)n1-c1ccc(Br)cc1 [Example 25, 2-(1-(4-Bromophenyl)-2-(2,4-dichlorophenyl)-5-isopropyl-1H-imidazol-4-yl)-5-tert-butyl-1,3,4-oxadiazole] | – | 21.2

Continued by falling IC50 [1], values first:

IC50 [1] [nM] | Compound | IC50 [nM]
119 | CCc1c(-c2nc(C(C)(C)C)co2)nc(-c2ccc(Cl)cc2Cl)n1-c1ccc(Cl)cc1 [Example 190, 4-tert-Butyl-2-(1-(4-chlorophenyl)-2-(2,4-dichlorophenyl)-5-ethyl-1H-imidazol-4-yl)oxazole] | –
88.3 | Cc1c(-c2nc(C(C)(C)C)co2)nc(-c2ccc(Cl)cc2Cl)n1-c1ccc(Cl)cc1 [Example 189, 4-tert-Butyl-2-(1-(4-chlorophenyl)-2-(2,4-dichlorophenyl)-5-methyl-1H-imidazol-4-yl)oxazole] | –
78.6 | Cc1c(-c2ncc(C3CCCCC3)o2)nc(-c2ccc(Cl)cc2Cl)n1-c1ccc(Cl)cc1 [Example 180, 2-(1-(4-Chlorophenyl)-2-(2,4-dichlorophenyl)-5-methyl-1H-imidazol-4-yl)-5-cyclohexyloxazole] | –
70.2 | CCc1cnc(-c2nc(-c3ccc(Cl)cc3Cl)n(-c3ccc(Cl)cc3)c2C)s1 [Example 194, 2-(1-(4-Chlorophenyl)-2-(2,4-dichlorophenyl)-5-methyl-1H-imidazol-4-yl)-5-ethylthiazole] | –
51.5 | CCCc1c(-c2nnc(C3CCCCC3)s2)nc(-c2ccc(Cl)cc2Cl)n1-c1ccc(Cl)cc1 [Example 129, 2-(1-(4-Chlorophenyl)-2-(2,4-dichlorophenyl)-5-propyl-1H-imidazol-4-yl)-5-cyclohexyl-1,3,4-thiadiazole] | –
39.4 | CCC(C)c1nnc(-c2nc(-c3ccc(Cl)cc3Cl)n(-c3ccc(Cl)cc3)c2C)o1 (centres unmarked) [Example 8, 2-sec-Butyl-5-(1-(4-chlorophenyl)-2-(2,4-dichlorophenyl)-5-methyl-1H-imidazol-4-yl)-1,3,4-oxadiazole] | –
34.1 | CCc1c(-c2nnc(C3CCC3)o2)nc(-c2ccc(Cl)cc2Cl)n1-c1ccc(Cl)cc1 [Example 14, 2-(1-(4-Chlorophenyl)-2-(2,4-dichlorophenyl)-5-ethyl-1H-imidazol-4-yl)-5-cyclobutyl-1,3,4-oxadiazole] | –
27.8 | Cc1c(-c2nnc(C3CCC3)s2)nc(-c2ccc(Cl)cc2Cl)n1-c1ccc(Br)cc1 [Example 111, 2-(1-(4-Bromophenyl)-2-(2,4-dichlorophenyl)-5-methyl-1H-imidazol-4-yl)-5-cyclobutyl-1,3,4-thiadiazole] | –
22.3 | CCC(CC)c1nnc(-c2nc(-c3ccc(Cl)cc3Cl)n(-c3ccc(Cl)cc3)c2C)o1 [Example 10, 2-(1-(4-Chlorophenyl)-2-(2,4-dichlorophenyl)-5-methyl-1H-imidazol-4-yl)-5-(pentan-3-yl)-1,3,4-oxadiazole] | –
21.6 | Cc1c(-c2nnc(C3CCCCCC3)s2)nc(-c2ccc(Cl)cc2Cl)n1-c1ccc(Cl)cc1 [Example 94, 2-(1-(4-Chlorophenyl)-2-(2,4-dichlorophenyl)-5-methyl-1H-imidazol-4-yl)-5-cycloheptyl-1,3,4-thiadiazole] | –
17.6 | CCc1c(-c2nnc(C3CCCC3)s2)nc(-c2ccc(Cl)cc2Cl)n1-c1ccc(Cl)cc1 [Example 102, 2-(1-(4-Chlorophenyl)-2-(2,4-dichlorophenyl)-5-ethyl-1H-imidazol-4-yl)-5-cyclopentyl-1,3,4-thiadiazole] | –
15.9 | CCc1c(-c2nnc(C3(C(F)(F)F)CC3)s2)nc(-c2ccc(Cl)cc2Cl)n1-c1ccc(Br)cc1 [Example 139, 2-(1-(4-Bromophenyl)-2-(2,4-dichlorophenyl)-5-ethyl-1H-imidazol-4-yl)-5-(1-(trifluoromethyl)cyclopropyl)-1,3,4-thiadiazole] | –
15.6 | Cc1c(-c2nnc(C3(C(F)(F)F)CC3)o2)nc(-c2ccc(Cl)cc2Cl)n1-c1ccc(Br)cc1 [Example 46, 2-(1-(4-Bromophenyl)-2-(2,4-dichlorophenyl)-5-methyl-1H-imidazol-4-yl)-5-(1-(trifluoromethyl)cyclopropyl)-1,3,4-oxadiazole] | –
10.5 | CCc1c(-c2ncc(C(C)(C)C)s2)nc(-c2ccc(Cl)cc2Cl)n1-c1ccc(Br)cc1 [Example 201, 2-(1-(4-Bromophenyl)-2-(2,4-dichlorophenyl)-5-ethyl-1H-imidazol-4-yl)-5-tert-butylthiazole] | –
8.77 | FC(F)(F)C1(c2nnc(-c3nc(-c4ccc(Cl)cc4Cl)n(-c4ccc(Br)cc4)c3Cn3cncn3)o2)CC1 [Example 75, 2-(5-((1H-1,2,4-Triazol-1-yl)methyl)-1-(4-bromophenyl)-2-(2,4-dichlorophenyl)-1H-imidazol-4-yl)-5-(1-(trifluoromethyl)cyclopropyl)-1,3,4-oxadiazole] | –
4.79 | CCc1c(-c2nnc(C3(c4ccc(Cl)cc4)CCC3)s2)nc(-c2ccc(Cl)cc2Cl)n1-c1ccc(Br)cc1 [Example 131, 2-(1-(4-Bromophenyl)-2-(2,4-dichlorophenyl)-5-ethyl-1H-imidazol-4-yl)-5-(1-(4-chlorophenyl)cyclobutyl)-1,3,4-thiadiazole] | –
4.73 | FC(F)(F)C1(c2nnc(-c3nc(-c4ccccc4Cl)n(-c4ccc(Br)cc4)c3Cn3cncn3)s2)CC1 [Example 169, 2-(5-((1H-1,2,4-Triazol-1-yl)methyl)-1-(4-bromophenyl)-2-(2-chlorophenyl)-1H-imidazol-4-yl)-5-(1-(trifluoromethyl)cyclopropyl)-1,3,4-thiadiazole] | –
3.5 | CCCc1c(-c2nnc(C3(c4ccc(Cl)cc4)CCC3)s2)nc(-c2ccc(Cl)cc2Cl)n1-c1ccc(Cl)cc1 [Example 128, 2-(1-(4-Chlorophenyl)-2-(2,4-dichlorophenyl)-5-propyl-1H-imidazol-4-yl)-5-(1-(4-chlorophenyl)cyclobutyl)-1,3,4-thiadiazole] | –
1.7 | FC(F)(F)C1(c2nnc(-c3nc(-c4ccc(Cl)cc4Cl)n(-c4ccc(Br)cc4)c3Cn3cncn3)s2)CCC1 [Example 166, 2-(5-((1H-1,2,4-Triazol-1-yl)methyl)-1-(4-bromophenyl)-2-(2,4-dichlorophenyl)-1H-imidazol-4-yl)-5-(1-(trifluoromethyl)cyclobutyl)-1,3,4-thiadiazole] | –
